Earlier results as cited in patent publication US20140213990A1, “COMPOSITIONS AND METHODS FOR TREATING SURFACE WOUNDS” (priority 2013, published 2014).

Legend:
diabetic foot ulcers = conditions: at 20 weeks of treatment
[1] = Phase III clinical trials

For Becaplermin, the “closure (healing) rate for diabetic foot ulcers” value (diabetic foot ulcers) is listed as 44% and the “patients in whom cancer appeared” value [1] is listed as 80%.
